SMILES strings stand for the structures. Like-named read-outs stand apart in the source and are kept apart here.

Here are results for 30 compounds from US20250179061A1 (SIRONAX LTD., priority 2022, published 2025).

The experiment has as its system HT-29 cells. Nature of the experiment: HT-29 necroptosis cell viability assay (TNF-α/SMAC mimetic/zVAD-FMK, CellTiter-Glo). The conditions noted are these: Homo sapiens, read-out: Activity. The class given is cell-based. The method in brief:
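Necroptosis was triggered by TNF-α (10 ng/ml), SMAC mimetic (6 μM) and zVAD-FMK (10 μM) in serum-free medium during 20 h compound exposure (10 concentrations, threefold steps) of HT-29 cells. IC50 from duplicate dose-responses uses CellTiter-Glo ATP luminescence as viability read-out.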
A general note: In ATP-based viability assays light output follows the ATP content of the culture.

The mark [1] stands for this setting: HT-29, HT-29 necroptosis cell viability, IC50 class symbols.
Setting [2] is: HT-29, HT-29 necroptosis cell viability assay, class symbols for IC50.
Setting [3] is: HT-29 cells stimulated with TNF-α (10 ng/ml), SMAC mimetic (6 μM) and zVAD-FMK (10 μM), 20 hours, CellTiter-Glo ATP luminescence, geometric mean IC50 from 10 points.

For `Cc1nc([C@H](C)O)sc1Oc1ccc(-n2ncn(Cc3c(F)cccc3F)c2=O)cc1F` (single isomer, unassigned) [Example 460], the IC50 under setting [1] was less than 100 nM. As for `O=c1n(Cc2c(F)cccc2F)cnn1-c1ccc(Oc2scnc2C(F)F)c(F)c1` [Example 147, 4-(2,6-difluorobenzyl)-2-(4-((4-(difluoromethyl)thiazol-5-yl)oxy)-3-fluorophenyl)-2,4-dihydro-3H-1,2,4-triazol-3-one], the IC50 under setting [2] was less than 100 nM.

For the compound `Cc1nc(CN)sc1Oc1ccc(-n2ncn(Cc3c(F)cccc3F)c2=O)cc1F` [Example 159, 2-(4-((2-(aminomethyl)-4-methylthiazol-5-yl)oxy)-3-fluorophenyl)-4-(2,6-difluorobenzyl)-2,4-dihydro-3H-1,2,4-triazol-3-one], under setting [2], the IC50 was less than 100 nM. Take `Cc1nn(CCO)c(C)c1Oc1ccc(-n2ncn(Cc3c(F)cccc3F)c2=O)cc1F` [Example 180, 4-(2,6-difluorobenzyl)-2-(3-fluoro-4-((1-(2-hydroxyethyl)-3,5-dimethyl-1H-pyrazol-4-yl)oxy)phenyl)-2,4-dihydro-3H-1,2,4-triazol-3-one]: under setting [2], the IC50 is less than 100 nM. Take `Cc1nc(C#N)cn1Cc1ccc(-n2ncn(Cc3c(F)cccc3F)c2=O)cc1F` [Example 125, 1-(4-(4-(2,6-difluorobenzyl)-5-oxo-4,5-dihydro-1H-1,2,4-triazol-1-yl)-2-fluorobenzyl)-2-methyl-1H-imidazole-4-carbonitrile]: the IC50 under setting [2] was less than 100 nM.

Regarding `O=c1n(Cc2c(F)ccc(F)c2F)cnn1-c1ccc(Oc2ccnc(N3CC4(CCOCC4)C3)c2)cc1` [Example 288, 2-(4-((2-(7-oxa-2-azaspiro[3.5]nonan-2-yl)pyridin-4-yl)oxy)phenyl)-4-(2,3,6-trifluorobenzyl)-2,4-dihydro-3H-1,2,4-triazol-3-one], the IC50 under setting [1] lay within 100 to 1000 nM. Consider `Cc1nc(N2CC(OC(F)F)C2)sc1Oc1ccc(-n2ncn(Cc3c(F)cccc3F)c2=O)cc1` [Example 49, 4-(2,6-difluorobenzyl)-2-(4-((2-(3-(difluoromethoxy)azetidin-1-yl)-4-methylthiazol-5-yl)oxy)phenyl)-2,4-dihydro-3H-1,2,4-triazol-3-one], for which the IC50 under setting [3] was less than 100 nM. Regarding `Cc1nc(N2CCOCC2)sc1Oc1ccc(-n2ncn(Cc3c(F)cccc3F)c2=O)cc1F` [Example 295, 4-(2,6-difluorobenzyl)-2-(3-fluoro-4-((4-methyl-2-morpholinothiazol-5-yl)oxy)phenyl)-2,4-dihydro-3H-1,2,4-triazol-3-one], the IC50 under setting [1] was less than 100 nM.

Take `Cc1nc(C(=O)N2CC(O)C2)sc1Oc1ccc(-n2ncn(Cc3ccccc3F)c2=O)cc1F` [Example 593, 2-(3-fluoro-4-((2-(3-hydroxyazetidine-1-carbonyl)-4-methylthiazol-5-yl)oxy)phenyl)-4-(2-fluorobenzyl)-2,4-dihydro-3H-1,2,4-triazol-3-one]: under setting [2], the IC50 is less than 100 nM. Regarding `CN(c1cc(Oc2ccc(-n3ncn(Cc4c(F)cccc4F)c3=O)cc2)ccn1)C1CC(F)(F)C1` [Example 478, 4-(2,6-difluorobenzyl)-2-(4-((2-((3,3-difluorocyclobutyl)(methyl)amino)pyridin-4-yl)oxy)phenyl)-2,4-dihydro-3H-1,2,4-triazol-3-one], under setting [1], the IC50 fell in the range of 100 to 1000 nM. With `Cc1nc(C(=O)N2CC(C#N)C2)sc1Oc1ccc(-n2ncn(Cc3ccccc3F)c2=O)cc1F` [Example 592, 1-(5-(2-fluoro-4-(4-(2-fluorobenzyl)-5-oxo-4,5-dihydro-1H-1,2,4-triazol-1-yl)phenoxy)-4-methylthiazole-2-carbonyl)azetidine-3-carbonitrile], the IC50 under setting [2] is less than 100 nM. Regarding `N#CC1CN(c2cc(Oc3ccc(-n4ncn(Cc5c(F)cccc5F)c4=O)cc3)ccn2)C1` [Example 338, 1-(4-(4-(4-(2,6-difluorobenzyl)-5-oxo-4,5-dihydro-1H-1,2,4-triazol-1-yl)phenoxy)pyridin-2-yl)azetidine-3-carbonitrile], the IC50 under setting [1] fell in the range of 100 to 1000 nM. For `O=c1n(Cc2c(F)cccc2F)cnn1-c1ccc(Oc2ccnc(NC3CC4(COC4)C3)c2)cc1` [Example 530, 2-(4-((2-((2-oxaspiro[3.3]heptan-6-yl)amino)pyridin-4-yl)oxy)phenyl)-4-(2,6-difluorobenzyl)-2,4-dihydro-3H-1,2,4-triazol-3-one], the IC50 under setting [2] was in the range of 100 to 1000 nM. As for `COC1(C)CN(c2nccc(Oc3ccc(-n4ncn(Cc5c(F)cccc5Cl)c4=O)cc3)c2F)C1` [Example 491, 4-(2-chloro-6-fluorobenzyl)-2-(4-((3-fluoro-2-(3-methoxy-3-methylazetidin-1-yl)pyridin-4-yl)oxy)phenyl)-2,4-dihydro-3H-1,2,4-triazol-3-one], under setting [2], the IC50 was less than 100 nM. With `CCOC1CN(c2cc(Oc3ccc(-n4ncn(Cc5c(F)cccc5F)c4=O)cc3)ccn2)C1` [Example 336, 4-(2,6-difluorobenzyl)-2-(4-((2-(3-ethoxyazetidin-1-yl)pyridin-4-yl)oxy)phenyl)-2,4-dihydro-3H-1,2,4-triazol-3-one], the IC50 under setting [1] was less than 100 nM.

With `COC1(C#N)CN(c2cc(Oc3ccc(-n4ncn(Cc5c(F)cccc5F)c4=O)cc3F)ccn2)C1` [Example 367, 1-(4-(4-(4-(2,6-difluorobenzyl)-5-oxo-4,5-dihydro-1H-1,2,4-triazol-1-yl)-2-fluorophenoxy)pyridin-2-yl)-3-methoxyazetidine-3-carbonitrile], the IC50 under setting [1] is less than 100 nM. As for `CCOC(=O)C(=O)c1nc(C)c(Oc2ccc(-n3ncn(Cc4c(F)cccc4F)c3=O)cc2F)s1` [Example 117, ethyl 2-(5-(4-(4-(2,6-difluorobenzyl)-5-oxo-4,5-dihydro-1H-1,2,4-triazol-1-yl)-2-fluorophenoxy)-4-methylthiazol-2-yl)-2-oxoacetate], under setting [2], the IC50 lay within 100 to 1000 nM. `Cc1nc(C(N)=O)sc1Oc1ccc(-n2nc3n(c2=O)[C@H](c2ccccc2)CC3)cc1` (single isomer, unassigned) [Example 17]: under setting [3], the IC50 was less than 100 nM. For the compound `Nc1c(Oc2ccc(-n3ncn(Cc4c(F)cccc4F)c3=O)cc2)ccnc1N1CC2(CCOCC2)C1` [Example 410, 2-(4-((3-amino-2-(7-oxa-2-azaspiro[3.5]nonan-2-yl)pyridin-4-yl)oxy)phenyl)-4-(2,6-difluorobenzyl)-2,4-dihydro-3H-1,2,4-triazol-3-one], the IC50 under setting [1] lay in the range of 100 to 1000 nM. As to `Cc1nc(N2CC(C)(C#N)C2)sc1Cc1ccc(-n2ncn(Cc3c(F)cccc3F)c2=O)cc1` [Example 512, 1-(5-(4-(4-(2,6-difluorobenzyl)-5-oxo-4,5-dihydro-1H-1,2,4-triazol-1-yl)benzyl)-4-methylthiazol-2-yl)-3-methylazetidine-3-carbonitrile], the IC50 under setting [2] was less than 100 nM.

Turning to `O=c1n(Cc2c(F)cccc2F)cnn1-c1ccc(Oc2ccnc(NC(C3CC3)C(F)(F)F)c2F)cc1` (stereo not drawn) [Example 360, 2-(4-((2-((1-cyclopropyl-2,2,2-trifluoroethyl)amino)-3-fluoropyridin-4-yl)oxy)phenyl)-4-(2,6-difluorobenzyl)-2,4-dihydro-3H-1,2,4-triazol-3-one], under setting [1], the IC50 was 1000 to 10000 nM. For the compound `CC(C)(C)CNc1cc(Oc2ccc(-n3ncn(Cc4c(F)cccc4F)c3=O)cc2)ccn1` [Example 386, 4-(2,6-difluorobenzyl)-2-(4-((2-(neopentylamino)pyridin-4-yl)oxy)phenyl)-2,4-dihydro-3H-1,2,4-triazol-3-one], the IC50 under setting [1] was less than 100 nM. Same read-out and setting: in the case of `CC1(C#N)CCN(c2nccc(Oc3ccc(-n4ncn(Cc5c(F)cccc5F)c4=O)cc3)c2F)C1` (stereo not drawn) [Example 356, 1-(4-(4-(4-(2,6-difluorobenzyl)-5-oxo-4,5-dihydro-1H-1,2,4-triazol-1-yl)phenoxy)-3-fluoropyridin-2-yl)-3-methylpyrrolidine-3-carbonitrile] it was less than 100 nM. Turning to `CC1(OC(F)(F)F)CN(c2cc(Oc3ccc(-n4ncn(Cc5c(F)cccc5F)c4=O)cc3F)c(Cl)cn2)C1` [Example 506, 2-(4-((5-chloro-2-(3-methyl-3-(trifluoromethoxy)azetidin-1-yl)pyridin-4-yl)oxy)-3-fluorophenyl)-4-(2,6-difluorobenzyl)-2,4-dihydro-3H-1,2,4-triazol-3-one], the IC50 under setting [2] was less than 100 nM. Take `O=c1n(Cc2c(F)cccc2F)cnn1-c1ccc(Oc2ccccc2[N+](=O)[O-])cc1` [Example 433, 4-(2,6-difluorobenzyl)-2-(4-(2-nitrophenoxy)phenyl)-2,4-dihydro-3H-1,2,4-triazol-3-one]: the IC50 under setting [1] fell in the range of 100 to 1000 nM. `Cc1n[nH]c(C)c1Oc1ccc(-n2ncn(Cc3c(F)cccc3F)c2=O)cc1F` [Example 178, 4-(2,6-difluorobenzyl)-2-(4-((3,5-dimethyl-1H-pyrazol-4-yl)oxy)-3-fluorophenyl)-2,4-dihydro-3H-1,2,4-triazol-3-one]: the IC50 under setting [2] is less than 100 nM. Consider `N#Cc1cc(Oc2ccc(-n3ncn(Cc4c(F)cccc4F)c3=O)cc2)ccn1` [Example 405, 4-(4-(4-(2,6-difluorobenzyl)-5-oxo-4,5-dihydro-1H-1,2,4-triazol-1-yl)phenoxy)picolinonitrile], for which, under setting [1], the IC50 was in the range of 100 to 1000 nM. With `Cc1nc(N2CC(C#N)C2)sc1Oc1ccc(-n2ncn(Cc3c(F)cccc3F)c2=O)cc1` [Example 53, 1-(5-(4-(4-(2,6-difluorobenzyl)-5-oxo-4,5-dihydro-1H-1,2,4-triazol-1-yl)phenoxy)-4-methylthiazol-2-yl)azetidine-3-carbonitrile], under setting [3], the IC50 is less than 100 nM. As to `CCOC1CN(c2nccc(Oc3ccc(-n4ncn(Cc5c(F)cccc5F)c4=O)cc3Cl)c2F)C1` [Example 494, 2-(3-chloro-4-((2-(3-ethoxyazetidin-1-yl)-3-fluoropyridin-4-yl)oxy)phenyl)-4-(2,6-difluorobenzyl)-2,4-dihydro-3H-1,2,4-triazol-3-one], the IC50 under setting [2] is less than 100 nM. As for `COc1cc(Oc2ccc(-n3ncn(Cc4c(F)cccc4F)c3=O)cc2)cc(OC)n1` [Example 436, 4-(2,6-difluorobenzyl)-2-(4-((2,6-dimethoxypyridin-4-yl)oxy)phenyl)-2,4-dihydro-3H-1,2,4-triazol-3-one], under setting [1], the IC50 fell in the range of 100 to 1000 nM.
